In patent US20030220232A1, “Peptide and nucleic acid coding therefor for the detection, diagnosis and therapy of diseases of the nervous system” (priority 2000, published 2003):
pIC50: −log10 of the molar value.

How the values were obtained:
sodium ion channels = experiment: Neuroinhibitory assay: inhibition of sodium currents, whole cell mode, differentiated NH15-CA2 neuroblastoma-x-glioma cells; format: cell-based; conditions: for concentration of solution with corresponding electrophysiological action on neuronal sodium channels: 10 μM peptide solution corresponds to 50 μM lidocaine solution
Source text: “Neuroinhibitory activity” here means the capacity of a substance for blocking sodium ion channels. Neuroinhibitory activity can be measured in this connection by the inhibition of sodium ion currents through potential-dependent sodium ion channels. (Review article by Lehmann-Horn et al. in Rev. Physiol. Biochem. Pharmacol. 128; (1996), 198-268). The experimental conditions for measurement of the neuroinhibitory activity are described, for example, in Brinkmeier et al., Muscle and Nerve 19 (1996), 54-62. Neuroinhibitory activity can be determined using differentiated NH15-CA2 [neuroblastoma×glioma] cells (Hamprecht et al., Meth. Enzymol. 109 (1985), 316-41; Brinkmeier et al., Muscle Nerve 19 (1996), 54-62).
The neuroinhibitory activity was determined by the inhibition of sodium ion channels using differentiated NH15-CA2 neuroblastoma-x-glioma cells. The culture conditions and morphological and physiological parameters of the differentiation of these cells are known (Hamprecht et al., Meth. Enzymol. 109 (1985), 316-41). For the assay, the cells were transferred into a hydrophobic test dish which was filled with standard external liquid (140 mM NaCl; 3.5 mM KCl; 1.0 mM CaCl2; 1.0 mM MgCl2; 2 mM HEPES, pH 7.4). The dish was on the platen of an inverted microscope for observation of the cells, while these were treated with pipettes which were filled with internal solution (140 mM CsCl; 1.4 mM MgCl2; 10 mM EGTA and 10 mM HEPES (peak resistances: […])). The sodium currents were induced and recorded in the whole cell mode. The determination of the maximum current amplitudes as a response to repetitive rectangular pulses from −85 to −20 mV lasting 8 ms before, during and after administration of the test solution can be used as a rapid test for the neuroinhibitory activity. The decrease in the current was recorded in three to five cells and the means were determined. An extended test consisted of determination of the “steady-state” activation and inactivation parameters of sodium ion channels. To determine the dependence of the activation on potential, a cyclic pulse program was used, which comprised pre-pulses which depolarized the cells from an HP (holding potential) of −85 mV to −135 mV over 100 ms, and subsequent variable test pulses which depolarized for 8 ms in 4 mV steps from −65 to +31 mV. For the dependence of the inactivation on potential, a similar program was used, which comprised a fixed 100 ms conditioning pulse at −135 mV, a variable 32 ms prepulse in the course of −135 to −19 mV in 4 mV steps and a constant test pulse which depolarized the cells to −20 mV. The size of the left shift of the h curve in the presence of test solutions was used as a measured of the inhibition of the sodium ion channels.
The neuroinhibitory activity of the synthetic peptide with the sequence (SEQ ID NO:1) was determined by the inhibition of the sodium currents by ion channels which were induced by 1 Hz rectangular pulses from […]. […] In each case the mean with the standard deviation is shown.

[1] = molecular target: sodium ion channels of differentiated NH15-CA2 neuroblastoma-x-glioma cells; experiment: cell-based or functional assay

Gln-Tyr-Asn-Ala-Asp (QYNAD) [SEQ ID NO:1]
concentration at saturation of the neuroinhibitory effect (sodium ion channels): 100 µM
neuroinhibitory activity compared with lidocaine (sodium ion channels): significantly higher
neuroinhibitory activity in respect of sodium ion channels (in words) (sodium ion channels): blocks their sodium currents
concentration of solution with corresponding electrophysiological action on neuronal sodium channels (sodium ion channels): 10 μM
peptide-mediated blocking of the ion channel (time course) (sodium ion channels; NH15-CA2 cells): rapid and reversible
pIC50 (sodium ion channels; NH15-CA2 cells, currents induced by 1 Hz rectangular pulses, seven measurements, read-out: peptide concentration giving half-maximum inhibition of the sodium ion currents): > 5.00

Gln-Tyr-Asn-Asp-Ala (QYNDA) [SEQ ID NO:2]
neuroinhibitory activity in respect of sodium ion channels (in words) (sodium ion channels): does not have a neuroinhibitory activity

synthetic peptide Gln-Tyr-Asn-Ala-Asp (SEQ ID NO: 1)
half-maximum inhibition of the sodium ion currents [1]: < 10 µM
saturation of the peptide effect [1]: 100 µM

CCN(CC)CC(=O)Nc1c(C)cccc1C [lidocaine, reference compound]
concentration of solution with corresponding electrophysiological action on neuronal sodium channels (sodium ion channels): 50 μM
